ChEMBL document CHEMBL3244247, “Beta-Adrenergic blocking agents. 15. 1-Substituted ureidophenoxy-3-amino-2-propanols” (1977)

How the values were obtained:
Felis catus [1] = experiment: In vivo inhibition of beta-2 adrenergic receptor in cat assessed as inhibition of isoproterenol-induced vasodepressor response at ED50 administered as 30 mins of infusion measured at 30 mins relative to control; type: functional
Felis catus [2] = experiment: In vivo inhibition of beta-1 adrenergic receptor in cat assessed as inhibition of isoproterenol-induced tachycardia administered as 30 mins of infusion measured at 30 mins by cardiotachometer; type: functional; settings: 0.5 h

SMILES	inhibition (INH) (Felis catus [1]) [%]	ED50 (Felis catus [2]) [mg/kg]
CC(C)NCC(O)COc1ccc(NC(N)=O)cc1 (centres undefined)	20	0.631
CC(C)(C)NCC(O)COc1ccc(NC(N)=O)cc1 (centres undefined)	0	0.101
CNC(=O)Nc1ccc(OCC(O)CNC(C)C)cc1 (centres undefined)	29	0.07
CNC(=O)Nc1ccc(OCC(O)CNC(C)(C)C)cc1 (centres undefined)	0	0.074
CNC(=O)Nc1ccc(OCC(O)CNC(C)C)c(Cl)c1 (centres undefined)	26	0.104
CNC(=O)Nc1ccc(OCC(O)CNC(C)(C)C)c(Cl)c1 (centres undefined)	52	0.025
CNC(=O)Nc1ccc(OCC(O)CNC(C)C)c(Br)c1 (centres undefined)	63	0.033
CNC(=O)Nc1ccc(OCC(O)CNC(C)C)c(I)c1 (centres undefined)	33	0.1
CNC(=O)Nc1ccc(OCC(O)CNC(C)C)c(C)c1 (centres undefined)	32	0.17
CCCc1cc(NC(=O)NC)ccc1OCC(O)CNC(C)(C)C (centres undefined)	7	0.093
CNC(=O)Nc1ccc(OCC(O)CNC(C)C)c(C(C)=O)c1 (centres undefined)	43	0.395
C=CCc1cc(NC(=O)NC)ccc1OCC(O)CNC(C)(C)C (centres undefined)	74	0.056
CCNC(=O)Nc1ccc(OCC(O)CNC(C)C)cc1 (centres undefined)	0	0.427
CCNC(=O)Nc1ccc(OCC(O)CNC(C)(C)C)cc1 (centres undefined)	34	0.201
CCNC(=O)Nc1ccc(OCC(O)CNC(C)C)c(Cl)c1 (centres undefined)	0	0.188
CCNC(=O)Nc1ccc(OCC(O)CNC(C)C)c(Br)c1 (centres undefined)	19	0.069
CCNC(=O)Nc1ccc(OCC(O)CNC(C)(C)C)c(I)c1 (centres undefined)	6	0.023
CCNC(=O)Nc1ccc(OCC(O)CNC(C)C)c(C)c1 (centres undefined)	27	0.234
CCNC(=O)Nc1ccc(OCC(O)CNC(C)(C)C)c(C)c1 (centres undefined)	58	0.057
CCNC(=O)Nc1ccc(OCC(O)CNC(C)COP)c(C)c1 (centres undefined)	18	0.885
CCNC(=O)Nc1ccc(OCC(O)CNC(C)C)c(CC)c1 (centres undefined)	33	0.118

SMILES	inhibition (INH) (Felis catus [1]) [%]	ED50 (Felis catus [2]) [mg/kg]
CCNC(=O)Nc1ccc(OCC(O)CNC(C)(C)C)c(CC)c1 (centres undefined)	2	0.08
C=CCc1cc(NC(=O)NCC)ccc1OCC(O)CNC(C)C (centres undefined)	68	0.18
C=CCc1cc(NC(=O)NCC)ccc1OCC(O)CNC(C)(C)C (centres undefined)	30	0.038
C=CCc1cc(NC(=O)NCC)ccc1OCC(O)CNC(C)(C)CO (centres undefined)	50	0.224
C=CCc1cc(NC(=O)NCC)ccc1OCC(O)CNC1CC1 (centres undefined)	37	1.14
CCNC(=O)Nc1ccc(OCC(O)CNC(C)C)c(OCC)c1 (centres undefined)	41	0.295
CCNC(=O)Nc1ccc(OCC(O)CNC(C)C)c(O)c1 (centres undefined)	15	0.521
CCNC(=O)Nc1ccc(OCC(O)CNC(C)C)c(SC)c1 (centres undefined)	32	0.198
CCCNC(=O)Nc1ccc(OCC(O)CNC(C)C)cc1 (centres undefined)	0	0.147
CCCNC(=O)Nc1ccc(OCC(O)CNC(C)(C)C)cc1 (centres undefined)	0	0.033
CCCNC(=O)Nc1ccc(OCC(O)CNC(C)C)c(I)c1 (centres undefined)	100	0.077
CCCNC(=O)Nc1ccc(OCC(O)CNC(C)C)c(C)c1 (centres undefined)	59	0.061
CCCNC(=O)Nc1ccc(OCC(O)CNC(C)(C)C)c(C)c1 (centres undefined)	0	0.044
C=CCc1cc(NC(=O)NCCC)ccc1OCC(O)CNC(C)C (centres undefined)	15	0.213
CCCCNC(=O)Nc1ccc(OCC(O)CNC(C)C)cc1 (centres undefined)	0	0.416
CCCCNC(=O)Nc1ccc(OCC(O)CNC(C)(C)C)cc1 (centres undefined)	0	0.048
CCCCNC(=O)Nc1ccc(OCC(O)CNC(C)(C)C)c(Cl)c1 (centres undefined)	0	0.008
CCCCNC(=O)Nc1ccc(OCC(O)CNC(C)C)c(C)c1 (centres undefined)	0	0.046
CCCCNC(=O)Nc1ccc(OCC(O)CNC(C)(C)C)c(C)c1 (centres undefined)	11	0.012
CCCCCCNC(=O)Nc1ccc(OCC(O)CNC(C)C)cc1 (centres undefined)	0	0.274
CCCCCCNC(=O)Nc1ccc(OCC(O)CNC(C)(C)C)cc1 (centres undefined)	30	0.094

SMILES	inhibition (INH) (Felis catus [1]) [%]	ED50 (Felis catus [2]) [mg/kg]
CCCCCCNC(=O)Nc1ccc(OCC(O)CNC(C)C)c(C)c1 (centres undefined)	19	0.189
CCCCCCNC(=O)Nc1ccc(OCC(O)CNC(C)(C)C)c(C)c1 (centres undefined)	50	0.03
CCCCCCNC(=O)Nc1ccc(OCC(O)CNC(C)C)c(C(C)=O)c1 (centres undefined)	0	0.182
CCCCCCCCNC(=O)Nc1ccc(OCC(O)CNC(C)C)c(C)c1 (centres undefined)	28	0.169
CCCCCCCCNC(=O)Nc1ccc(OCC(O)CNC(C)(C)C)c(C)c1 (centres undefined)	11	0.08
CC(C)NC(=O)Nc1ccc(OCC(O)CNC(C)(C)C)cc1 (centres undefined)	24	0.095
Cc1cc(NC(=O)NC(C)C)ccc1OCC(O)CNC(C)C (centres undefined)	57	0.438
Cc1cc(NC(=O)NC(C)C)ccc1OCC(O)CNC(C)(C)C (centres undefined)	5	0.049
C=CCNC(=O)Nc1ccc(OCC(O)CNC(C)C)cc1 (centres undefined)	70	0.262
C=CCNC(=O)Nc1ccc(OCC(O)CNC(C)(C)C)cc1 (centres undefined)	6	0.089
C=CCNC(=O)Nc1ccc(OCC(O)CNC(C)C)c(Cl)c1 (centres undefined)	43	0.131
C=CCNC(=O)Nc1ccc(OCC(O)CNC(C)(C)C)c(Cl)c1 (centres undefined)	19	0.022
C=CCNC(=O)Nc1ccc(OCC(O)CNC(C)C)c(C)c1 (centres undefined)	12	0.107
C=CCNC(=O)Nc1ccc(OCC(O)CNC(C)(C)C)c(C)c1 (centres undefined)	32	0.045
CC(C)(C)NCC(O)COc1ccc(NC(=O)Nc2ccc(Cl)cc2)cc1 (centres undefined)	39	0.403
CC(C)NCC(O)COc1ccc(NC(=O)NC2CCCCC2)cc1Cl (centres undefined)	14	0.252
CCNC(=O)Nc1ccccc1OCC(O)CNC(C)C (centres undefined)	103	3.24
CC(C)NCC(O)COc1cccc(NC(N)=O)c1 (centres undefined)	58	0.028
CC(=O)Nc1ccc(OCC(O)CNC(C)C)cc1 (centres undefined) [PRACTOLOL]	8	0.167
CC(C)NCC(O)COc1cccc2ccccc12 (centres undefined) [PROPRANOLOL]	85	0.062
